We go through two compounds from patent US8536148B2, “Disabling autophagy as a treatment for lysosomal storage diseases” (The United States of America, as Represented by the …, priority 2009, dated 2013).

The test system of data set [1] is GAA−/− mice. Put plainly: Effect of ERT on glycogen levels in GAA−/− mice (biochemical glycogen measurement, PAS staining). Format: in vivo, mouse. As to conditions: for Treated vs. Untreated GAA−/− % Reduction / Glycogen level, Treated / Excess Glycogen: GAA−/−; for Glycogen level, Treated: rhGAA 100 mg/kg i.v., three injections every other week; for Excess Glycogen: treated value minus wild type level. How it is done: (§1) Glycogen concentration in skeletal muscle was evaluated by measuring the amount of glucose released after treatment of tissue extracts with Aspergillus niger amyloglucosidase as described (Kikuchi et al., J. Clin. Invest., 101:827-833, 1998), except that the enzymatic digestion was carried out at 55° C. rather than 37° C. (Kikuchi et al., J. Clin. Invest., 101:827-833, 1998). Tissues were fixed in 3% glutaraldehyde (EM grade, Electron Microscopy sciences, Hatfield, Pa.) in 0.2M Sodium Cacodylate buffer for 4 h at 4° C., washed in 0.1M Sodium Cacodylate buffer, and stored at 4° C. in the same buffer. Samples were then imbedded in paraffin, sectioned, and stained with periodic acid-Schiff (PAS) by standard methods.
(§2) Two and a half month-old GAA−/−, MLCcre: Atg7F/F: GAA−/−, and HSAcre: Atg5F/F: GAA−/− mice received three intravenous injections of recombinant human α-glucosidase (rhGAA; Myozyme®, Genzyme Corporation, Framingham, Mass.) at a dose of 100 mg/kg every other week. To diminish a hypersensitivity reaction, diphenhydramine hydrochloride was injected intraperitoneally at a dose of 5 mg/kg 15 minutes before the second and third injections of rhGAA. The mice were sacrificed 7 days after the last injection. Twelve GAA−/−, 11 HSAcre: Atg5F/F: GAA−/−, and 9 MLCcre: Atg7F/F: GAA−/− were treated with rhGAA.

Data set [2] concerns MLCcre: Atg7F/F: GAA−/− mice. The data set can be described thus: Effect of ERT on glycogen levels in MLCcre:Atg7F/F:GAA−/− mice (biochemical glycogen measurement, PAS staining). In kind it is in vivo, mouse. As to conditions: for Glycogen level after ERT (in words): MLCcre:Atg7F/F:GAA−/− mice, fast muscle; for Glycogen level, Treated: rhGAA 100 mg/kg i.v., three injections every other week; for Excess Glycogen: treated value minus wild type level. The method, then: as §1, §2

Data set [3] has as its system HSAcre: Atg5F/F: GAA−/− mice. Put plainly: Effect of ERT on glycogen levels in HSAcre:Atg5F/F:GAA−/− mice (biochemical glycogen measurement, PAS staining). The following applies: for Glycogen level, Treated: rhGAA 100 mg/kg i.v., three injections every other week; for Excess Glycogen: treated value minus wild type level. Format: in vivo, mouse. How it is done: as §1, §2

The test system of data set [4] is GAA−/− mice. The data set can be described thus: Effect of ERT on ubiquitinated (Ub) proteins in fast muscle of GAA−/− mice (FK2 immunoblot). In kind it is in vivo, mouse. As to conditions: gastrocnemius total lysates, ERT-treated vs untreated. How it is done: Whole muscle tissues were homogenized in RIPA buffer (PBS, 1% NP40, 0.5% Sodium deoxycholate, 0.1% SDS) containing a protease inhibitor cocktail tablet (Roche Diagnostics, Mannheim, Germany). Samples were centrifuged for 30 min at 13,000 rpm at 4° C. Alternatively, detergent-soluble and -insoluble fractions from muscle tissues were obtained as previously described (Hara et al. 2006). Briefly, muscle tissues were homogenized in ice-cold 0.25 M sucrose buffer (50 mM Tris-HCl pH 7.4, 1 mM EDTA; ˜350 μl/100 mg tissue) with protease inhibitors. Homogenates were centrifuged at a low speed for […] at 4° C., and the supernatants were lysed with an equal volume of cold sucrose buffer with 1% Triton X-100. Lysates were then centrifuged at 13,000 g for […] at 4° C. to collect fractions soluble in 0.5% Triton-X-100; the pellets (Triton-X-100-insoluble fractions) were resuspended in 1% SDS in PBS.
Protein concentrations of the supernatants of the total lysates or soluble fractions were measured using Bio-Rad Protein Assay (Bio-Rad Laboratories, Inc., Hercules, Calif.). Equal amounts of protein were run on SDS-PAGE gels (Invitrogen) followed by electro-transfer onto nitrocellulose membranes (Invitrogen). […]
For orientation: A western blot detects proteins with antibodies after separation by electrophoresis.

Data set [5] relates to HSAcre: Atg5F/F: GAA−/− mice. Put plainly: Effect of ERT on ubiquitinated (Ub) proteins in fast muscle of HSAcre:Atg5F/F:GAA−/− mice (FK2 immunoblot, immunostaining). Format: in vivo, mouse. The following applies: ERT-treated vs untreated. The method, then:
(§3) White gastrocnemius, soleus, and psoas muscles were removed immediately after sacrifice and pinned to Sylgaard-coated dishes for fixation with 2% paraformaldehyde in 0.1M phosphate buffer for 1 h, followed by fixation in methanol (−20° C.) for 6 min. Single fibers were obtained by manual teasing. Fibers were placed in a 24-well plate in Blocking Reagent (Vector Laboratories, Burlingame, Calif.) for 1 h. The fibers were then permeabilized, incubated with primary antibody overnight at 4° C., washed, incubated with secondary antibody for 2 h, washed again, and mounted in Vectashield (Vector Laboratories, Burlingame, Calif.) on a glass slide. The fibers were analyzed using a Zeiss 510 META confocal microscope. The white part of gastrocnemius and psoas muscles in mice are a good source of glycolytic fast-twitch type II fibers (referred to as fast fibers), whereas soleus muscle is a good source of oxidative slow-twitch type I fibers (referred to as slow fibers). At least three animals from each genotype were used to obtain single muscle fibers for immunostaining. For each immunostaining and for confocal analysis, at least 20 fibers were isolated from each of the three muscle groups. […]
Protein concentrations of the supernatants of the total lysates or soluble fractions were measured using Bio-Rad Protein Assay (Bio-Rad Laboratories, Inc., Hercules, Calif.). […]

In data set [6] the test system is GAA−/− mice. Put plainly: LAMP-1/LC3 immunostaining of single fast (psoas) fibers after ERT, GAA−/− mice. In kind it is in vivo, mouse. As to conditions: ERT-treated. The method, then:
as §3

The test system of data set [7] is MLCcre: Atg7F/F: GAA−/− mice. Put plainly: LAMP-1/LC3 immunostaining of single fast (psoas) fibers after ERT, MLCcre:Atg7F/F:GAA−/− mice. In kind it is in vivo, mouse. The following applies: ERT-treated. The method, then:
as §3

The subject of the next data set is Pompe disease. The following applies: cited from earlier work.
The subject of data set [8] is genetically engineered mice that lack expression of GAA. As to conditions: mice lacking GAA; cited from earlier work.
The next data set has as its system TA muscle. In kind it is in vivo.
A further data set relates to autophagy. Put plainly: Inhibition of autophagy by 3-MA injected into TA muscle (histology, LC3, glycogen content). Format: in vivo. The following applies: 40 l of 5 mg/ml per TA, two injections six days apart, harvested two to three days after second injection. How it is done: 3-MA was administered using the highest possible safety dose (40 l of 5 mg/ml per TA) determined from the above-described study. Two injections (six days apart) were given into TA muscle. Two to three days after the second injection, the treated muscles were harvested to examine the histology, the level of autophagy marker LC3, and the glycogen content.

For data set [9] the following is noted: intraperitoneal; Sigma MSDS; cited from earlier work.

Entries after “also recorded” stand apart in the source; their conditions may differ.

“ERT: recombinant human α-glucosidase (rhGAA; Myozyme®, Genzyme Corporation) given intravenously as enzyme replacement therapy”: the “Glycogen clearance after ERT (in words)” value in the data set with GAA−/− mice [1] (GAA−/− mice with genetically intact autophagy, skeletal muscle) was “cleared glycogen poorly”. The “Treated vs. Untreated GAA−/− % Reduction” value was found to be 27% in the data set with GAA−/− mice [1] (Gastroc); 100% in the data set on GAA−/− mice [1] (Heart); 28% in the data set with GAA−/− mice [1] (Quad); 88% in data set [2] (MLCcre:Atg7F/F:GAA−/−, Gastroc); 100% in [2] (MLCcre:Atg7F/F:GAA−/−, Heart); 82% in [2] (MLCcre:Atg7F/F:GAA−/−, Quad). For the same compound, the “Treated vs. Untreated GAA−/− % Reduction” value was determined as 94% in data set [3] (HSAcre:Atg5F/F:GAA−/−, Gastroc); 100% in data set [3] (HSAcre:Atg5F/F:GAA−/−, Heart); 94% in [3] (HSAcre:Atg5F/F:GAA−/−, Quad). Also, the “Glycogen level, Treated” value in the data set with GAA−/− mice [1] (Gastroc) was determined as 52.5 ± 22.7 μg glucose/hr/mg protein; in the data set on GAA−/− mice [1] (Heart) it was 0.6 ± 1.2 μg glucose/hr/mg protein; with GAA−/− mice [1] (Quad), 54.5 ± 29.6 μg glucose/hr/mg protein; in data set [2] (MLCcre:Atg7F/F:GAA−/−, Gastroc), 8.6 ± 8.9 μg glucose/hr/mg protein; in [2] (MLCcre:Atg7F/F:GAA−/−, Heart), 0.2 ± 0.4 μg glucose/hr/mg protein; in [2] (MLCcre:Atg7F/F:GAA−/−, Quad) it was 13.7 ± 10 μg glucose/hr/mg protein. Besides, the “Glycogen level, Treated” value in [3] (HSAcre:Atg5F/F:GAA−/−, Gastroc) is 4.1 ± 4.9 μg glucose/hr/mg protein; in data set [3] (HSAcre:Atg5F/F:GAA−/−, Heart), 0.0 ± 0.0 μg glucose/hr/mg protein; in [3] (HSAcre:Atg5F/F:GAA−/−, Quad), 5.0 ± 4.9 μg glucose/hr/mg protein. Also, the “Excess Glycogen” value was 48.1 μg glucose/hr/mg protein with GAA−/− mice [1] (Gastroc); 0 μg glucose/hr/mg protein in the data set with GAA−/− mice [1] (Heart); 50.1 μg glucose/hr/mg protein in the data set with GAA−/− mice [1] (Quad); 4.2 μg glucose/hr/mg protein in [2] (MLCcre:Atg7F/F:GAA−/−, Gastroc); 0 μg glucose/hr/mg protein in data set [2] (MLCcre:Atg7F/F:GAA−/−, Heart); 9.3 μg glucose/hr/mg protein in [2] (MLCcre:Atg7F/F:GAA−/−, Quad). For the same compound, the “Excess Glycogen” value in data set [3] (HSAcre:Atg5F/F:GAA−/−, Gastroc) is listed as 0 μg glucose/hr/mg protein; in data set [3] (HSAcre:Atg5F/F:GAA−/−, Heart), 0 μg glucose/hr/mg protein; in data set [3] (HSAcre:Atg5F/F:GAA−/−, Quad), 0.6 μg glucose/hr/mg protein. Also, the “Glycogen level after ERT (in words)” value in data set [2] is recorded as “reduction of glycogen levels to normal or near normal levels”; in [2] (listed as recombinant enzyme), “dramatic reduction in the glycogen level approaching wild type levels”; in data set [3] (HSAcre:Atg5F/F:GAA−/− mice, fast muscle) it was “reduction of glycogen levels to normal or near normal levels; also recorded: complete removal of the accumulated glycogen”. Further, the “Glycogen clearance, PAS-stained sections” value in data set [2] (MLCcre:Atg7F/F:GAA−/−, fast (gastrocnemius) muscle, 4 month-old) is given as “near complete glycogen clearance”; in [3] (HSAcre:Atg5F/F:GAA−/−, fast (gastrocnemius) muscle, 4 month-old) it was “near complete glycogen clearance”. The “Amount of ubiquitinated (Ub) proteins, FK2 immunoblot” value in the data set with GAA−/− mice [4] is listed as “No difference in the amount of the Ub-proteins; also recorded: No reduction of ubiquitinated-proteins”; in data set [5] (gastrocnemius, soluble and non-soluble fractions), “A significant drop in the amount of Ub-proteins; also recorded: significant decrease in the amount of ubiquitinated-proteins”. The “Ub-proteins, FK2 immunostaining of single fast (psoas) myofibers” value in [5] was “clearly observed in untreated, but not in ERT-treated myofibers”. The “Autophagic buildup (LC3 immunostaining)” value in the data set on GAA−/− mice [6] is “this buildup persists in ERT-treated GAA−/− mice”. Further, in the data set with GAA−/− mice [6], the “Lysosomal size (LAMP-1 immunostaining)” value was “even larger than those in the untreated fiber”. For the same compound, the “Expanded lysosomes (LAMP-1 immunostaining)” value in data set [7] was “reduce in size and appear normal”. In the data set on Pompe disease, the “Glycogen clearance from skeletal muscle” value is listed as “less effective for glycogen clearance from skeletal muscle”. In addition, in the data set with Pompe disease, the “Glycogen clearance in cardiac muscle” value was “effective for glycogen clearance in cardiac muscle”. Moreover, the “Glycogen clearance from type I muscle fibers” value in [8] is listed as “effective in clearing gylcogen from type I muscle fibers”. For the same compound, the “Glycogen clearance from type II muscle fibers” value in [8] is “not type II muscle fibers”.
With `Cn1cnc(N)c2ncnc1-2` [3-MA, 3-Methyladenine], the “Highest possible safety dose” value with TA muscle (40 l per TA (so in the source), intramuscular) was 5 mg/mL. In addition, the Toxicity / tolerability result with TA muscle (mouse, in vivo, ip) was “no toxicity was observed”. The “Inhibition of autophagy in the injected muscle” value with autophagy is “did not inhibit autophagy effectively”. Also, the “ip LD50 dose” value in data set [9] is 280 mg/kg.
